Experimental data taken from ChEMBL document CHEMBL3045786, “Insect antifeedant activity of tetranortriterpenoids from the Rutales. A perusal of structural relations” (2002).

Columns and labels:
Spodoptera litura [1] = assay: Antifeedant activity against larvae of Spodoptera litura in castor leaves relative to control; format: functional
Spodoptera litura [2] = assay: Feeding index against larvae of Spodoptera litura in castor leaves =

`COC(=O)C[C@H]1[C@]2(C)C3=C(C)[C@H](c4ccoc4)C[C@H]3O[C@@H]2[C@@H]2OC[C@]3(C)[C@H](O)C[C@H](OC(=O)C=C(C)C)[C@@]1(C)[C@@H]23` was tested, and the AFI (Spodoptera litura [1]) was 52.1%.

`CC(=O)OC1=C2C(C)(C)C(=O)[C@H]3O[C@H]3[C@]2(C)[C@H]2CC[C@@]3(C)[C@H](c4ccoc4)C[C@H]4O[C@]43[C@]2(C)C1=O` [CEDRELONEEPOXIDE ACETATE] showed a PFI (Spodoptera litura [2]) of 53.2%.

For `C/C=C(\C)C(=O)O[C@@H]1[C@@H]2OC[C@]3(C)[C@H](O)C[C@H](O)[C@@]4(CO[C@H](C(=O)OC)[C@H]4[C@]1(C)[C@]14O[C@@]1(C)[C@H]1C[C@@H]4O[C@@H]4OC=C[C@@]41O)[C@@H]23` [3-TIGLOYL MELIACARPIN], the PFI (Spodoptera litura [2]) was 13.3%.

In the case of `CC(=O)O[C@@H]1C[C@H]2C(C)(C)C(=O)C=C[C@]2(C)[C@H]2CC[C@]3(C)C(=CC[C@H]3c3ccoc3)[C@@]21C` [AZADIRONE], the PFI (Spodoptera litura [2]) is reported as 48.3%.

`C/C=C(\C)C(=O)O[C@H]1C[C@@H](OC(C)=O)[C@@]2(C)CO[C@H]3[C@H]4O[C@@H]5C[C@@H](C6=CCOC6=O)C(C)=C5[C@@]4(C)[C@H](CC(=O)OC)[C@]1(C)[C@@H]32` [SALANNOBUTYROLACTONE] showed a PFI (Spodoptera litura [2]) of 46.3%.

In the case of `COC1=C2C(C)(C)C(=O)C=C[C@]2(C)[C@H]2CC[C@@]3(C)[C@H](c4ccoc4)C[C@H]4O[C@]43[C@]2(C)C1=O` [CEDRELONEMETHYL ETHER], the PFI (Spodoptera litura [2]) is reported as 56%.

In the case of `CC(=O)O[C@@H]1C(=O)[C@H]2C(C)(C)C(=O)C=C[C@]2(C)[C@H]2CC[C@]3(C)C(=CC[C@H]3c3ccoc3)[C@]12C` [6-OXONIMONOL], the PFI (Spodoptera litura [2]) is reported as 44.2%.

Work on `COC(=O)C[C@H]1[C@]2(C)C3=C(C)[C@H](c4ccoc4)C[C@H]3O[C@@H]2[C@@H]2OC(=O)[C@]3(C)C=CC(=O)[C@@]1(C)[C@@H]23` [NIMBOLIDE] yielded a PFI (Spodoptera litura [2]) of 37%.

Work on `C/C=C(\C)C(=O)O[C@H]1C[C@@H](OC(C)=O)[C@@]2(C)CO[C@H]3[C@H]4O[C@@H]5C[C@@H](C6=CC(=O)OC6O)C(C)=C5[C@@]4(C)[C@H](CC(=O)OC)[C@]1(C)[C@@H]32` (stereo not given in full) [SALANNIN PP] yielded a PFI (Spodoptera litura [2]) of 25.1%.

`CC1(C)C(=O)C=C[C@@]2(C)C1=C(O)C(=O)[C@]1(C)[C@@H]2CC[C@@]2(C)[C@H](c3ccoc3)C[C@H]3O[C@]321` [CEDRELONE] showed a PFI (Spodoptera litura [2]) of 51.5%.
